Columns and labels:
Assay type in all cases: in vivo
[1] = test system: LOLMU (Lolium multiflorum); assay: post-emergence greenhouse test; details: 3.75 g ai/ha
Excerpt: (§1) For the post-emergence treatment, the test plants were first grown to a height of 3 to 20 cm, depending on the plant habit, and only then treated. Here, the herbicidal compositions were suspended or emulsified in water as distribution medium and sprayed using finely distributing nozzles.
(§2) The respective herbicides A and/or safener were formulated as 10% by weight strength suspension concentrate and introduced to the spray liquor with the amount of solvent system used for applying the active compound. Herbicide B and/or safener were used as commercially available formulations and introduced to the spray liquor with the amount of solvent system used for applying the active compound. In the examples, the solvent used was water.
(§3) The test period extended over 20 days. During this time, the plants were tended, and their response to the treatments with active compound was evaluated.
(§4) In the following experiments, the herbicidal activity for the individual herbicide compounds (solo application) and of the mixture was assessed 8 days after treatment (8 DAT) and/or 20 days after treatment (20 DAT).
(§5) The evaluation for the damage caused by the chemical compositions was carried out using a scale from 0 to 100%, compared to the untreated control plants. Here, 0 means no damage and 100 means complete destruction of the plants.

[2] = test system: CHEAL (Chenopodium album); assay: post-emergence greenhouse test; details: 15 g ai/ha
Excerpt: as §1, §2, §3, §4, §5

[3] = test system: MERAN (Mercurialis annua); assay: post-emergence greenhouse test; details: 7.5 g ai/ha
Excerpt: as §1, §2, §3, §4, §5

[4] = test system: AMBEL (Ambrosia artemisifolia); assay: post-emergence greenhouse test; details: 3.75 g ai/ha
Excerpt: as §1, §2, §3, §4, §5

PHBPU (Ipomoea purpurea) = assay: pre-emergence greenhouse test; details: PHBPU pre-emergence 15 g ai/ha
Excerpt: (§6) For the pre-emergence treatment, directly after sowing the active compounds, which had been suspended or emulsified in water, were applied by means of finely distributed nozzles. The containers were irrigated gently to promote germination and growth and subsequently covered with transparent plastic hoods until plant had rooted. This cover caused uniform germination of the tests plants, unless this was adversely affected by active compounds.
as §2, §3, §4, §5

[5] = test system: COMBE (Commelina benghalensis); assay: pre-emergence greenhouse test; details: for observed activity in % destruction: pre-emergence
Excerpt: as §6, §2, §3, §4, §5

[6] = test system: BRAPL (Brachiaria plantaginea); assay: pre-emergence greenhouse test; details: pre-emergence, 15 g ai/ha
Excerpt: as §6, §2, §3, §4, §5

SOLNI (Solanum nigrum) = assay: pre-emergence greenhouse test
Excerpt: as §6, §2, §3, §4, §5

[7] = test system: CCHEC (Cenchrus echinatus); assay: pre-emergence greenhouse test
Excerpt: as §6, §2, §3, §4, §5

SETVI (Setaria viridis) = assay: pre-emergence greenhouse test; details: for observed activity in % destruction: pre-emergence
Excerpt: as §6, §2, §3, §4, §5

[8] = test system: PANDI (Panicum dichotomiflorum); assay: pre-emergence greenhouse test; details: pre-emergence
Excerpt: as §6, §2, §3, §4, §5

[9] = test system: AMBEL (Ambrosia artemisifolia); assay: pre-emergence greenhouse test
Excerpt: as §6, §2, §3, §4, §5

[10] = test system: ALOMY (Alopecurus myosuroides); assay: pre-emergence greenhouse test; details: for observed activity in % destruction: pre-emergence
Excerpt: as §6, §2, §3, §4, §5

[11] = test system: PANMI (Panicum milliaceum); assay: pre-emergence greenhouse test
Excerpt: as §6, §2, §3, §4, §5

[12] = test system: AMARE (Amaranthus retroflexus); assay: pre-emergence greenhouse test; details: for observed activity in % destruction: pre-emergence
Excerpt: as §6, §2, §3, §4, §5

ERBVI = assay: pre-emergence greenhouse test
Excerpt: as §6, §2, §3, §4, §5

[13] = test system: ECHCG (Echinochloa crus-galli); assay: pre-emergence greenhouse test; details: for observed activity in % destruction: pre-emergence
Excerpt: as §6, §2, §3, §4, §5

## CC(C)C1(C)N=C(c2nc3ccccc3cc2C(=O)O)NC1=O (centres unmarked) [imazaquin]
[1]; 8 DAT
  observed activity in % destruction: 0%
[1]; 20 DAT
  observed activity in % destruction: 0%
[2]; 8 DAT
  observed activity in % destruction: 20%
[2]; 20 DAT
  observed activity in % destruction: 10%
[3]; 8 DAT
  observed activity in % destruction: 20%
[3]; 20 DAT
  observed activity in % destruction: 0%
[4]; 8 DAT
  observed activity in % destruction: 20%
[4]; 20 DAT
  observed activity in % destruction: 20%
PHBPU (Ipomoea purpurea)
  observed % destruction 20 DAT: 40%
[5]; COMBE pre-emergence 3.75 g ai/ha
  observed % destruction 20 DAT: 35%
[5]; COMBE pre-emergence 7.5 g ai/ha
  observed % destruction 20 DAT: 45%
[5]; 3.75 g ai/ha, 8 DAT
  observed activity in % destruction: 20%
[5]; 3.75 g ai/ha, 20 DAT
  observed activity in % destruction: 35%
[5]; 7.5 g ai/ha, 8 DAT
  observed activity in % destruction: 40%
[5]; 7.5 g ai/ha, 20 DAT
  observed activity in % destruction: 45%
[5]; 15 g ai/ha, 8 DAT
  observed activity in % destruction: 50%
[5]; 15 g ai/ha, 20 DAT
  observed activity in % destruction: 70%
[6]; 8 DAT
  observed activity in % destruction: 20%
[6]; 20 DAT
  observed activity in % destruction: 60%
SOLNI (Solanum nigrum); SOLNI pre-emergence 3.75 g ai/ha
  observed % destruction 20 DAT: 40%
SOLNI (Solanum nigrum); SOLNI pre-emergence 7.5 g ai/ha
  observed % destruction 20 DAT: 70%
SOLNI (Solanum nigrum); SOLNI pre-emergence 15 g ai/ha
  observed % destruction 20 DAT: 85%
[7]; CCHEC pre-emergence 3.75 g ai/ha
  observed % destruction 20 DAT: 20%
[7]; CCHEC pre-emergence 7.5 g ai/ha
  observed % destruction 20 DAT: 20%
[7]; CCHEC pre-emergence 15 g ai/ha
  observed % destruction 20 DAT: 35%
SETVI (Setaria viridis); SETVI pre-emergence 15 g ai/ha
  observed % destruction 20 DAT: 75%
SETVI (Setaria viridis); 3.75 g ai/ha, 8 DAT
  observed activity in % destruction: 30%
SETVI (Setaria viridis); 3.75 g ai/ha, 20 DAT
  observed activity in % destruction: 30%
SETVI (Setaria viridis); 15 g ai/ha, 8 DAT
  observed activity in % destruction: 65%
SETVI (Setaria viridis); 15 g ai/ha, 20 DAT
  observed activity in % destruction: 75%
[8]; 3.75 g ai/ha, 8 DAT
  observed activity in % destruction: 0%
[8]; 3.75 g ai/ha, 20 DAT
  observed activity in % destruction: 45%
[8]; 7.5 g ai/ha, 8 DAT
  observed activity in % destruction: 20%
[8]; 7.5 g ai/ha, 20 DAT
  observed activity in % destruction: 75%
[8]; 15 g ai/ha, 8 DAT
  observed activity in % destruction: 40%
[8]; 15 g ai/ha, 20 DAT
  observed activity in % destruction: 80%
[9]; AMBEL pre-emergence 3.75 g ai/ha
  observed % destruction 20 DAT: 50%
[9]; AMBEL pre-emergence 7.5 g ai/ha
  observed % destruction 20 DAT: 60%
[9]; AMBEL pre-emergence 15 g ai/ha
  observed % destruction 20 DAT: 80%
[10]; ALOMY pre-emergence 15 g ai/ha
  observed % destruction 20 DAT: 75%
[10]; 3.75 g ai/ha, 8 DAT
  observed activity in % destruction: 0%
[10]; 3.75 g ai/ha, 20 DAT
  observed activity in % destruction: 30%
[10]; 15 g ai/ha, 8 DAT
  observed activity in % destruction: 30%
[10]; 15 g ai/ha, 20 DAT
  observed activity in % destruction: 75%
[11]; PANMI pre-emergence 3.75 g ai/ha
  observed % destruction 20 DAT: 30%
[11]; PANMI pre-emergence 7.5 g ai/ha
  observed % destruction 20 DAT: 40%
[11]; PANMI pre-emergence 15 g ai/ha
  observed % destruction 20 DAT: 45%
[12]; AMARE pre-emergence 3.75 g ai/ha
  observed % destruction 20 DAT: 50%
[12]; AMARE pre-emergence 15 g ai/ha
  observed % destruction 20 DAT: 70%
[12]; 3.75 g ai/ha, 8 DAT
  observed activity in % destruction: 40%
[12]; 3.75 g ai/ha, 20 DAT
  observed activity in % destruction: 50%
[12]; 7.5 g ai/ha, 8 DAT
  observed activity in % destruction: 50%
[12]; 7.5 g ai/ha, 20 DAT
  observed activity in % destruction: 60%
ERBVI; ERBVI pre-emergence 3.75 g ai/ha
  observed % destruction 20 DAT: 0%
ERBVI; ERBVI pre-emergence 7.5 g ai/ha
  observed % destruction 20 DAT: 20%
[13]; ECHCG pre-emergence 3.75 g ai/ha
  observed % destruction 20 DAT: 0%
[13]; ECHCG pre-emergence 7.5 g ai/ha
  observed % destruction 20 DAT: 0%
[13]; ECHCG pre-emergence 15 g ai/ha
  observed % destruction 20 DAT: 20%
[13]; 7.5 g ai/ha, 8 DAT
  observed activity in % destruction: 0%
[13]; 7.5 g ai/ha, 20 DAT
  observed activity in % destruction: 0%
[13]; 15 g ai/ha, 8 DAT
  observed activity in % destruction: 20%
[13]; 15 g ai/ha, 20 DAT
  observed activity in % destruction: 20%
